Values of other authors as cited in patent publication US7169818B2, “Lysophosphatidic acid receptor agonists and antagonists” (University of Virginia Patent Foundation, priority 2000, dated 2007).

Assays:
Conditions in all cases: previously reported; cited from earlier work
[1] = target: mouse LPA1 (Mus musculus, UniProt P61793); parameters: expressed in transfected cells; host or cells: HEK293T (transient); for part of the results RH7777 membranes
[2] = target: human LPA2 (Homo sapiens, UniProt Q9HBW0); parameters: expressed in transfected cells; host or cells: HEK293T (transient)
[3] = system: Xenopus laevis ooctyes
[4] = system: human platelets
[5] = target: T1, human LPA3 (Homo sapiens, UniProt Q9UBY5); parameters: expressed in transfected cells; host or cells: HEK293T (transient)
T1 sequence (Q9UBY5 1-353): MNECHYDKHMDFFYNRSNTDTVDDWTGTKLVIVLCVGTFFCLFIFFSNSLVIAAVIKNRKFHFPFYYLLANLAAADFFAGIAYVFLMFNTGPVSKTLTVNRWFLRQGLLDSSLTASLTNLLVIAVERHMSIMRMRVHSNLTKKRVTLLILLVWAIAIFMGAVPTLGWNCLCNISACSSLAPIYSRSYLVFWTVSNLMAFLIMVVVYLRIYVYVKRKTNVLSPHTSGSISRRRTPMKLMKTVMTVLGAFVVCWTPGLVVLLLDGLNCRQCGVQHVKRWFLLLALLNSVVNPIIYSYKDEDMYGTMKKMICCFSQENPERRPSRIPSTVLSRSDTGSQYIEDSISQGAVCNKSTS

mouse LPA1, sequence (P61793 whole entry): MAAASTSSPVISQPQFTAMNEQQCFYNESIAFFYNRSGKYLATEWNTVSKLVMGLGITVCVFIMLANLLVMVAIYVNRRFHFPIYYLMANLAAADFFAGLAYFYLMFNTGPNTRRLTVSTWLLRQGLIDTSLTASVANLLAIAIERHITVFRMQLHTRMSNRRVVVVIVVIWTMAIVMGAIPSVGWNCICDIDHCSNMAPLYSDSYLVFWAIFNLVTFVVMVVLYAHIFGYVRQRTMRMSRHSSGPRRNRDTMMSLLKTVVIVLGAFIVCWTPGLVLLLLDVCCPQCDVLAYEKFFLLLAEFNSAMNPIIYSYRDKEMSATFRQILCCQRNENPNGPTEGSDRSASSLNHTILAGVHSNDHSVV
human LPA2, sequence (Q9HBW0 whole entry): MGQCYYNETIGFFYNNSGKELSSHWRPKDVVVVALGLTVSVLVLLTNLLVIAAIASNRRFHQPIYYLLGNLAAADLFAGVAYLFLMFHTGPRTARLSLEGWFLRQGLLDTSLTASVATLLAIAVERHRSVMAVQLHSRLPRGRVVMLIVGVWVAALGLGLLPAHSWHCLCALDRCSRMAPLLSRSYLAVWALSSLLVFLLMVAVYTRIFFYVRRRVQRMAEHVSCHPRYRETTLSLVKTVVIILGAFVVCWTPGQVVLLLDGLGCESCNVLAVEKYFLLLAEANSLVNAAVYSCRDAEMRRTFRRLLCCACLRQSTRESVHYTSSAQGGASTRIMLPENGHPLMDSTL

SMILES: CCCCCCCC/C=C\CCCCCCCC(=O)NCCOP(=O)(O)O [NAEPA, N-oleoyl ethanolamide phosphoric acid]
- GTP[γ35S] binding at LPA1 containing membranes relative to LPA (literature) [1]: nearly indistinguishable from LPA
- GTP[γ35S] binding at LPA2 containing membranes relative to LPA (literature) [2]: nearly indistinguishable from LPA
- oocyte depolarization (literature) [3]: distinctly less active than LPA
- platelet aggregation (literature) [4]: nearly indistinguishable from LPA
- activity at recombinant LPA3 relative to LPA (literature) [5]: distinctly less active than LPA
